The results in this text go back to ChEMBL document CHEMBL1122562, “Synthesis of 3-hydroxy-2- and -4-pyridone nucleosides as potential antitumor agents” (1984).

Calls of active or inactive are those of the source. The calls are words filed in the database; no cut-off is given here.

The subject of test [1] is P388. Kind of test: Compound was tested in vitro for its inhibitory activity against murine P-388 leukemia at doses ranging from 25 to 400 mg/kg qd 1-5; minimally active T/Cvalues of 125 in this tumor system. The format is functional, organism-based. As to conditions: Mus musculus.
For test [2], the system named is P388. Kind of test: Compound was tested in vitro for its inhibitory activity against murine P-388 leukemia. As to conditions: Mus musculus, read-out: ID50 (the source's name). The format is functional.
Test [3] deals with P388. Description: Compound was tested in vitro for its inhibitory activity against murine P-388 leukemia at doses ranging from 25 to 400 mg/kg qd 1-5 minimally active T/Cvalues of 125 in this tumor system. The class given is functional, organism-based. As to conditions: Mus musculus.

With `COc1c(C)n(C2O[C@H](CO)[C@@H](O)[C@H]2O)ccc1=O` (stereo partly drawn), in the test on P388 [1], the ID50 entry is “inactive”. Regarding `CC(=O)OC[C@H]1O[C@@H](n2cccc(OC(C)=O)c2=O)[C@H](OC(C)=O)[C@@H]1OC(C)=O`, in the test with P388 [1], the ID50 entry was “inactive”. On the same count and under the same terms, under `Cc1c(O)c(O)cc[n+]1C1O[C@H](CO)[C@@H](O)[C@@H]1O` (stereo partly drawn) stands “inactive”. In the case of `Oc1cccnc1O`, the IC50 in the test on P388 [2] worked out at 300 µM. With `O=c1c(O)cccn1[C@@H]1O[C@H](CO)[C@@H](O)[C@H]1O`, the IC50 in the test on P388 [2] came out at 450 µM. For the molecule `Cc1nccc(O)c1O`, the IC50 with P388 [2] was 110 µM.

For `Cc1c(O)c(=O)ccn1C1O[C@H](CO)[C@@H](O)[C@H]1O` (stereo partly drawn), the IC50 with P388 [2] was determined as 60 µM. Regarding `O=c1c(O)cccn1[C@@H]1O[C@H](CO)[C@@H](O)[C@@H]1O`, the ID50 entry in the test on P388 [3] is “inactive”.
